Patent publication US20260029420A1, “ANTI-CB2 ANTIBODIES AND THEIR USE IN A FLOW CYTOMETRY ASSAY TO MEASURE CELL SURFACE CB2 EXPRESSION” (Hoffmann-La Roche Inc., priority 2022, published 2026)
“And” between values parts separate entries of the source, which are not always exact repeats. Equal values may be shown once. Read-outs that look alike come from different tables or passages of the source.

Columns and labels:
[1] = molecular target: T1, CB2 (Homo sapiens, UniProt P34972); test: CB2 internalization flow cytometry assay in whole blood of diabetic patients and matched healthy participants; type: cell-based
T1 construct: measured in whole blood samples from nine different healthy human volunteers of working-age; endogenous in cells; host or cells: B-cells (and basophils and other leukocytes) in human whole blood
T1 sequence (P34972 whole entry): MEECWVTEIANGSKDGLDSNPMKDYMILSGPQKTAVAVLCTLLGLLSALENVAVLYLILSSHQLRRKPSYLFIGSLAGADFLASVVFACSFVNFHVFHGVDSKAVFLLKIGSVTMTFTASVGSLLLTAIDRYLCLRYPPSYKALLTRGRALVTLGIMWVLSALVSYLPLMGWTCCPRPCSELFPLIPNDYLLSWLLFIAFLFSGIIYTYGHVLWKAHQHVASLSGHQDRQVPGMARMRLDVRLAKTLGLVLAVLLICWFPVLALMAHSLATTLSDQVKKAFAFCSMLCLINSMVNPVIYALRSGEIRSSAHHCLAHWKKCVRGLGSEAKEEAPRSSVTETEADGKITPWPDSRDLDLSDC
Excerpt: FIGS. 9A-9E: IC50 value determination for RG7774 in different cell sub-populations in whole blood of diabetic patients and matched healthy participants. Median Fluorescence intensity (MFI)±SD of CB2 surface expression in diabetic patients (open dots, dotted line) and age-matched healthy participants (closed dots, continuous line) after exposure to increasing concentrations of RG7774. Mean MFI for individual data points is based on duplicate measures FIG. 9A: B-cells (CD45^+ CD3^− CD14^− CD19^+). FIG. 9B: Basophils (CD45^+ CD3^− CD14^− CD19^− CD193^+ IgE^+). FIG. 9C: Monocytes (CD45^+ CD3^− CD14^+). FIG. 9D: T-cells (CD45^+ CD3^+ CD14^−). FIG. 9E: NK cells (CD45^+ CD3^− CD14^− CD19^− CD193^− IgE^− CD16^+ CD56^+).
In order to understand, the exposure-response relationship for a drug-induced CB2 internalization on blood cell populations, in particular on B-cells and Basophils, whole blood of nine different diabetic type 1 and 2 patients and eight demographically and age-matched healthy participants were treated with 8 compound concentrations in duplicates to determine the IC50 of RG7774.
Human whole blood from diabetic patients and age-matched healthy participants was incubated with RG7774 for 1 hour at 37° C. followed by incubation with the anti-human CB2 Ab 1/622. The expression of CB2 on the surface of the different blood cell types was analyzed using the lineage marker mix specific for B-cells, Basophils, T-cells, NK-cells and Monocytes. MFI values at 0 μM RG7774 were set as 100% baseline receptor expression for each cell type.

[2] = molecular target: CB2 (Macaca fascicularis, UniProt G7NVV5); test: In vitro CB2 internalization flow cytometry assay in Cynomolgus whole blood; type: cell-based, Cynomolgus monkey
Chain of CB2 (Macaca fascicularis, UniProt G7NVV5) (G7NVV5 1-360): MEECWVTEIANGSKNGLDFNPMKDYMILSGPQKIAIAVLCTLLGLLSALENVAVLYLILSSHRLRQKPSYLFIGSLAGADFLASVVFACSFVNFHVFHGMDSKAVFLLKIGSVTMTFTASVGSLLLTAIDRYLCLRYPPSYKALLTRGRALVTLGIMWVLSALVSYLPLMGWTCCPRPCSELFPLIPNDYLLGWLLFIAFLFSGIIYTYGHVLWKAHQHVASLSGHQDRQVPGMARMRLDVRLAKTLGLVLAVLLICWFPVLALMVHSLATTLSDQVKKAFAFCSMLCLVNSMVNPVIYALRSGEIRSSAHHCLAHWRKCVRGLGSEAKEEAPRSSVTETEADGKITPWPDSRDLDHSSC
Description: FIG. 10: In vitro IC50 determination of CB2 internalization on B-cells in whole blood from Cynomolgus monkeys. Cynomolgus whole blood was incubated with RG7774 for 1 hour at 37° C. followed by incubation with the anti-human CB2 antibody 1/622. The expression of CB2 on the surface of B-cells was analyzed using a lineage marker mix specific for B-cells and T-cells. The B/T-cell CB2 MFI ratio was calculated and normalized to baseline. 0 μM was set as 100% baseline receptor expression.
In order to establish whether the CB2 surface assay is cross-reactive in Cynomolgus monkey, blood obtained from five different healthy Cynomolgus monkey has been tested in vitro and the individual IC50 values for RG7774 and maximum reduction of CB2 surface expression in whole blood determined using 8 different compound concentrations in duplicates (FIG. 10, Table 8).

[3] = individual donors, DM type 1, value in parentheses = excluded outlier subject
[4] = individual donors, matched healthy participants (HP)

Question: How did the Emax ([1]; Basophils, both groups on average, read-out: Emax) turn out when Cn1nnnc1Cn1nnc2c(N3CC[C@H](O)C3)nc(C(C)(C)C)nc21 [RG7774, (S)-1-[5-tert-Butyl-3-(1-methyl-1H-tetrazol-5-ylmethyl)-3H-[1,2,3]triazolo [4,5-d]pyrimidin-7-yl]-pyrrolidin-3-ol] was run?
Answer: ~60%

Question: And the Emax ([1]; DM (all) (n = 8), read-out: Mean Emax (Basophils) ± SD per diagnosis)?
Answer: 60.4 ± 9.5%

Question: What about the Emax ([1]; DM type 1 (n = 3), read-out: Mean Emax (B-cells) ± SD per diagnosis) of the same compound?
Answer: 60.5 ± 2.8%

Question: And the Emax ([1]; DM type 1 (n = 3), read-out: Mean Emax (Basophils) ± SD per diagnosis)?
Answer: 65.9 ± 2.2%

Question: And the Emax ([1]; DM type 2 (n = 5), read-out: Mean Emax (B-cells) ± SD per diagnosis)?
Answer: 53.6 ± 14.5%

Question: What about the Emax ([1]; DM type 2 (n = 5), read-out: Mean Emax (Basophils) ± SD per diagnosis) of the same compound?
Answer: 57 ± 10.9%

Question: What about the “Fold change vs HPs of mean IC50 (CB2 on B-cells)” value ([1]; DM vs working-age healthy participants) of the same compound?
Answer: 1.8x

Question: And the IC50 ([1]; Individual IC50 (B-cells), individual donors, DM type 1, value in parentheses = excluded outlier subject)?
Answer: 225 nM and 126 nM and 1060 nM

Question: What about the IC50 ([1]; Individual IC50 (B-cells), individual donors, DM type 2) of the same compound?
Answer: 335 nM and 57.9 nM

Question: And the IC50 ([1]; Individual IC50 (Basophils), individual donors, DM type 1, value in parentheses = excluded outlier subject)?
Answer: 72 nM and 38.1 nM and 31.7 nM and 154 nM

Question: What about the IC50 ([1]; Individual IC50 (Basophils), individual donors, DM type 2) of the same compound?
Answer: 61 nM and 25.7 nM and 54.6 nM and 22.9 nM and 44.4 nM

Question: And the IC50 ([1]; Individual IC50 (Basophils), individual donors, matched healthy participants (HP))?
Answer: 22.1 nM and 23.5 nM and 26.5 nM and 58.1 nM and 55.8 nM and 77.3 nM and 80.1 nM

Question: And the Emax ([1]; Matched HPs (n = 8), read-out: Mean Emax (Basophils) ± SD per diagnosis)?
Answer: 59.3 ± 4.5%

Question: And the “Fold change vs HPs of mean IC50 (CB2 on B-cells)” value ([1]; Matched Healthy vs working-age healthy participants)?
Answer: 2.6 x

Question: What about the IC50 ([1]; Mean IC50 (Basophils) ± SD per diagnosis, DM (all) (n = 8)) of the same compound?
Answer: 43.8 ± 17.5 nM

Question: What about the IC50 ([1]; Mean IC50 (Basophils) ± SD per diagnosis, DM type 1 (n = 3)) of the same compound?
Answer: 47.2 ± 21.7 nM

Question: What about the IC50 ([1]; Mean IC50 (Basophils) ± SD per diagnosis, DM type 2 (n = 5)) of the same compound?
Answer: 41.7 ± 17 nM

Question: And the IC50 ([1]; Mean IC50 (Basophils) ± SD per diagnosis, Matched HPs (n = 8))?
Answer: 57.2 ± 32.8 nM

Question: What about the “fold higher exposure to achieve half maximum internalization of the CB2 on B-cells” value ([1]; diabetic patients and matched healthy participants relative to working-age healthy participants) of the same compound?
Answer: 2-3 fold

Question: And the “Individual Emax (B-cells)” value [1, 3]?
Answer: 62.79% and (59.35) %

Question: What about the “Individual Emax (Basophils)” value [1, 3] of the same compound?
Answer: 68.43% and 64.41% and (57.09) %

Question: And the Emax ([1]; individual donors, DM type 1, value in parentheses = excluded outlier subject, read-out: Individual Emax (B-cells))?
Answer: 62%

Question: And the Emax ([1]; individual donors, DM type 1, value in parentheses = excluded outlier subject, read-out: Individual Emax (Basophils))?
Answer: 64.9%

Question: And the “Individual Emax (B-cells)” value ([1]; individual donors, DM type 2)?
Answer: 34.08% and 74.13% and 50.35% and 58.24% and 51.25%

Question: What about the “Individual Emax (Basophils)” value ([1]; individual donors, DM type 2) of the same compound?
Answer: 41.64% and 62.91% and 54.19% and 70.94%

Question: And the “Individual Emax (B-cells)” value [1, 4]?
Answer: 52.88% and 51.18% and 52.64% and 70.18% and 52.40% and 60.22% and 49.16% and 57.11%

Question: What about the “Individual Emax (Basophils)” value [1, 4] of the same compound?
Answer: 64.04% and 57.73% and 54% and 58.78% and 62.7%

Question: And the Emax ([1]; individual donors, matched healthy participants (HP), read-out: Individual Emax (Basophils))?
Answer: 66.1%

Question: And the “reduction of the CB2 expression” value ([2]; T-cells, Monocytes and Granulocytes (data not shown))?
Answer: has not been observed

Question: And the “responder status in vitro” value ([2]; five Cynomolgus monkeys)?
Answer: One Cynomolgus out of five is a non-responder
